Like-named read-outs stand apart in the source and are kept apart here.
Tested on: NCI-60 standardized human tumor cell line panel
Test: cells
Assay type: cell-based
[1] = cell line A549/ATCC (LC:A549/ATCC), TMI sheet
[2] = cell line BT-549 (BR:BT-549), TMI sheet
[3] = cell line CCRF-CEM (LE:CCRF-CEM), TMI sheet
[4] = cell line COLO 205 (CO:COLO 205), TMI sheet
[5] = cell line EKVX (LC:EKVX), TMI sheet
[6] = cell line HCC-2998 (CO:HCC-2998), TMI sheet
[7] = cell line HCT-15 (CO:HCT-15), TMI sheet
[8] = cell line HCT-116 (CO:HCT-116), TMI sheet
[9] = cell line HL-60(TB) (LE:HL-60(TB)), TMI sheet
[10] = cell line HOP-62 (LC:HOP-62), TMI sheet
[11] = cell line HOP-92 (LC:HOP-92), TMI sheet
[12] = cell line HT29 (CO:HT29), TMI sheet
[13] = cell line K-562 (LE:K-562), TMI sheet
[14] = cell line KM12 (CO:KM12), TMI sheet
[15] = cell line LOX IMVI (ME:LOX IMVI), TMI sheet
[16] = cell line M14 (ME:M14), TMI sheet
[17] = cell line MALME-3M (ME:MALME-3M), TMI sheet
[18] = cell line MCF7 (BR:MCF7), TMI sheet
[19] = cell line MDA-MB-435 (ME:MDA-MB-435), TMI sheet
[20] = cell line MOLT-4 (LE:MOLT-4), TMI sheet
[21] = cell line NCI-H23 (LC:NCI-H23), TMI sheet
[22] = cell line NCI-H226 (LC:NCI-H226), TMI sheet
[23] = cell line RPMI-8226 (LE:RPMI-8226), TMI sheet
[24] = cell line SF-539 (CNS:SF-539), TMI sheet
[25] = cell line SK-MEL-5 (ME:SK-MEL-5), TMI sheet
[26] = cell line SK-MEL-28 (ME:SK-MEL-28), TMI sheet
[27] = cell line SNB-19 (CNS:SNB-19), TMI sheet
[28] = cell line SR (LE:SR), TMI sheet
[29] = cell line SW-620 (CO:SW-620), TMI sheet
[30] = cell line T-47D (BR:T-47D), TMI sheet
[31] = cell line U251 (CNS:U251), TMI sheet
[32] = cell line UACC-62 (ME:UACC-62), TMI sheet
[33] = cell line UACC-257 (ME:UACC-257), TMI sheet

## COc1cc2cc(C(=O)N3CC(CCl)c4c3cc(OC(=O)N3CCN(C)C5CSSCC53)c3ccccc43)[nH]c2c(OC)c1OC (mixture of isomers) [Me-SS66T-CBI-TMI]
TK-10, read-out: GI50
  GI50: 130 nM
U251, read-out: GI50
  GI50: 11 nM
UACC-62, read-out: GI50
  GI50: 15 nM
UACC-257, read-out: GI50
  GI50: 24 nM
[1]
  NCI-60 screening: Log(GI50): -7.92
  NCI-60 screening: Log(RedIndex): 2.22
Cell line A549/ATCC (LC:A549/ATCC), TMI sheet, read-out: NCI-60 screening: Raw GI50
  GI50: 12 nM
[2]
  NCI-60 screening: Log(GI50): -7.81
  NCI-60 screening: Log(RedIndex): 2.01
Cell line BT-549 (BR:BT-549), TMI sheet, read-out: NCI-60 screening: Raw GI50
  GI50: 15 nM
[3]
  NCI-60 screening: Log(GI50): -7.58
  NCI-60 screening: Log(RedIndex): 1.58
[4]
  NCI-60 screening: Log(GI50): -7.31
  NCI-60 screening: Log(RedIndex): 1.44
[5]
  NCI-60 screening: Log(GI50): -7.74
  NCI-60 screening: Log(RedIndex): 2.03
Cell line EKVX (LC:EKVX), TMI sheet, read-out: NCI-60 screening: Raw GI50
  GI50: 18 nM
[6]
  NCI-60 screening: Log(GI50): -7.81
  NCI-60 screening: Log(RedIndex): 1.99
Cell line HCC-2998 (CO:HCC-2998), TMI sheet, read-out: NCI-60 screening: Raw GI50
  GI50: 15 nM
[7]
  NCI-60 screening: Log(GI50): -7.66
  NCI-60 screening: Log(RedIndex): 1.9
[8]
  NCI-60 screening: Log(GI50): -7.74
  NCI-60 screening: Log(RedIndex): 1.92
Cell line HCT-116 (CO:HCT-116), TMI sheet, read-out: NCI-60 screening: Raw GI50
  GI50: 18 nM
[9]
  NCI-60 screening: Log(GI50): -7.92
  NCI-60 screening: Log(RedIndex): 1.8
Cell line HL-60(TB) (LE:HL-60(TB)), TMI sheet, read-out: NCI-60 screening: Raw GI50
  GI50: 12 nM
[10]
  NCI-60 screening: Log(GI50): -7.91
  NCI-60 screening: Log(RedIndex): 1.68
Cell line HOP-62 (LC:HOP-62), TMI sheet, read-out: NCI-60 screening: Raw GI50
  GI50: 12 nM
[11]
  NCI-60 screening: Log(GI50): -7.57
  NCI-60 screening: Log(RedIndex): 1.97
Cell line HOP-92 (LC:HOP-92), TMI sheet, read-out: NCI-60 screening: Raw GI50
  GI50: 27 nM
[12]
  NCI-60 screening: Log(GI50): -7.47
  NCI-60 screening: Log(RedIndex): 1.65
Cell line HT29 (CO:HT29), TMI sheet, read-out: NCI-60 screening: Raw GI50
  GI50: 34 nM
[13]
  NCI-60 screening: Log(GI50): -7.61
  NCI-60 screening: Log(RedIndex): 1.44
Cell line K-562 (LE:K-562), TMI sheet, read-out: NCI-60 screening: Raw GI50
  GI50: 25 nM
[14]
  NCI-60 screening: Log(GI50): -7.36
  NCI-60 screening: Log(RedIndex): 1.68
[15]
  NCI-60 screening: Log(GI50): -7.91
  NCI-60 screening: Log(RedIndex): 1.96
Cell line LOX IMVI (ME:LOX IMVI), TMI sheet, read-out: NCI-60 screening: Raw GI50
  GI50: 12 nM
[16]
  NCI-60 screening: Log(GI50): -7.98
  NCI-60 screening: Log(RedIndex): 2.16
Cell line M14 (ME:M14), TMI sheet, read-out: NCI-60 screening: Raw GI50
  GI50: 10 nM
[17]
  NCI-60 screening: Log(GI50): -7.86
  NCI-60 screening: Log(RedIndex): 2.06
[18]
  NCI-60 screening: Log(GI50): -8.28
  NCI-60 screening: Log(RedIndex): 1.78
[19]
  NCI-60 screening: Log(GI50): -7.56
  NCI-60 screening: Log(RedIndex): 1.81
Cell line MDA-MB-435 (ME:MDA-MB-435), TMI sheet, read-out: NCI-60 screening: Raw GI50
  GI50: 27 nM
[20]
  NCI-60 screening: Log(GI50): -8
  NCI-60 screening: Log(RedIndex): 1.78
[21]
  NCI-60 screening: Log(GI50): -8.02
  NCI-60 screening: Log(RedIndex): 1.69
Cell line NCI-H23 (LC:NCI-H23), TMI sheet, read-out: NCI-60 screening: Raw GI50
  GI50: 9.5 nM
[22]
  NCI-60 screening: Log(GI50): -7.02
  NCI-60 screening: Log(RedIndex): 1.18
[23]
  NCI-60 screening: Log(GI50): -7.47
  NCI-60 screening: Log(RedIndex): 1.64
Cell line RPMI-8226 (LE:RPMI-8226), TMI sheet, read-out: NCI-60 screening: Raw GI50
  GI50: 34 nM
Cell line SF-268 (CNS:SF-268), TMI sheet
  NCI-60 screening: Log(GI50): -7.83
Cell line SF-268 (CNS:SF-268), TMI sheet, read-out: NCI-60 screening: Raw GI50
  GI50: 15 nM
Cell line SF-295 (CNS:SF-295), TMI sheet
  NCI-60 screening: Log(GI50): -8.01
[24]
  NCI-60 screening: Log(GI50): -8
  NCI-60 screening: Log(RedIndex): 2.12
Cell line SF-539 (CNS:SF-539), TMI sheet, read-out: NCI-60 screening: Raw GI50
  GI50: 10 nM
[25]
  NCI-60 screening: Log(GI50): -7.88
  NCI-60 screening: Log(RedIndex): 2.09
[26]
  NCI-60 screening: Log(GI50): -7.84
  NCI-60 screening: Log(RedIndex): 2.39
Cell line SK-MEL-28 (ME:SK-MEL-28), TMI sheet, read-out: NCI-60 screening: Raw GI50
  GI50: 15 nM
[27]
  NCI-60 screening: Log(GI50): -7.79
  NCI-60 screening: Log(RedIndex): 2.13
Cell line SNB-19 (CNS:SNB-19), TMI sheet, read-out: NCI-60 screening: Raw GI50
  GI50: 16 nM
[28]
  NCI-60 screening: Log(GI50): -8.4
  NCI-60 screening: Log(RedIndex): 1.84
[29]
  NCI-60 screening: Log(GI50): -7.24
  NCI-60 screening: Log(RedIndex): 1.51
Cell line SW-620 (CO:SW-620), TMI sheet, read-out: NCI-60 screening: Raw GI50
  GI50: 58 nM
[30]
  NCI-60 screening: Log(GI50): -7.3
  NCI-60 screening: Log(RedIndex): 1.58
[31]
  NCI-60 screening: Log(GI50): -7.96
  NCI-60 screening: Log(RedIndex): 2.14
[32]
  NCI-60 screening: Log(GI50): -7.82
  NCI-60 screening: Log(RedIndex): 2.01
Cell line UACC-62 (ME:UACC-62), TMI sheet, read-out: NCI-60 screening: Raw GI50
  GI50: 15 nM
[33]
  NCI-60 screening: Log(GI50): -7.62
  NCI-60 screening: Log(RedIndex): 1.92
Mean over NCI cell lines, vs P-CC60
  mean reductive index: ca. 70
read-out: NCI-60 screening: Raw GI50
  GI50: 160 nM
